This is an account of results in PubChem BioAssay (NCI).

Several values for one entry are separate records, joined by “and”; a condition that tells them apart may be missing. Equal values may be shown once.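 Step 1: Grow cells in 96-well plates. Step 2: Expose to compound for 48 hours at 5 concentrations. Step 3: Interpolate endpoints linearly; if unreached, use highest concentration. GI50 marks 50% less growth. The concentration for full growth arrest is given as TGI.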

Common to all, as to test: growth of human tumour cells (NCI), 48 h
Test [1] deals with SK-MEL-5 melanoma.
The test system of test [2] is A498 renal.
For test [3], the system named is HL-60(TB) leukemia.
Test [4] has as its system KM12 colon.
The test system of test [5] is IGROV1 ovarian.
Test [6] concerns SNB-75 CNS.
Test [7] concerns M14 melanoma.
Test [8] has as its system OVCAR-4 ovarian.
The test system of test [9] is MALME-3M melanoma.
Test [10] relates to COLO 205 colon.

In the case of `N#CC1=C(N)OC2=C(COc3ccc(F)cc32)C1c1ccc(Cl)cc1` (stereo not given), the GI50 is 20.4 µM in test [1]; 22.2 µM in [2]; 33.5 µM in [3]; 33.4 µM in [4]; 70.3 µM in test [5]; above 100 µM in test [6]. In addition, the GI50 was 44.6 µM in test [7], 78.3 µM in [8] and 47.9 µM in test [9]. Also, the TGI in test [1] was 58.7 µM; in test [2], 67.7 µM; in [3] it was 86 µM; in test [4], above 100 µM; in [5] it was above 100 µM; in [6], above 100 µM. Besides, the TGI in [7] was above 100 µM; in [8], above 100 µM; in [9] it was 94.9 µM.

Turning to `COc1cc2c(c(OC)c1OC)-c1ccc(SC)c(=O)cc1[C@@H](NC(=O)c1ccc(OC(C)=O)cc1)CC2`, the values for the GI50 in test [1] and in test [8] were 0.0196 µM and 10.6 µM, respectively. Also, the TGI in [2] is 0.0779 µM and 0.0202 µM; in test [3] it was 20.5 µM; in test [4] it was 0.0407 µM; in test [5] it was above 100 µM; in test [10], 0.0405 µM; in test [8] it was 23.1 µM.

For the molecule `CCC1=C[C@@H]2CN(C1)Cc1c([nH]c3ccccc13)[C@@](C(=O)OC)(c1cc3c(cc1OC)N(C=O)[C@H]1[C@@](O)(C(=O)OC)[C@H](OC(C)=O)[C@]4(CC)[C@@H]5C[C@@H]5CN5CC[C@]31[C@@H]54)C2`, the GI50 in [1] was 0.000921 µM; in test [2] it was 0.00221 µM; in test [3] it was below 0.000625 µM; in test [4], below 0.000625 µM; in test [5], 0.00261 µM; in test [6], 0.000766 µM. In addition, the GI50 in test [10] is below 0.000625 µM; in test [7], 0.00169 µM; in test [8], 0.054 µM. The TGI in [1] is 0.0315 µM; in test [2], 0.0794 µM; in test [3], below 0.000625 µM; in test [5] it was above 6.25 µM; in test [6], above 5.74 µM; in test [10], 0.00122 µM. For the same molecule, the TGI in test [7] was 0.0643 µM; in [8], above 6.25 µM.

With `c1cc2c(cc1C(N1CCNCC1)N1CCNCC1)OCO2`, the TGI in test [1], in test [2], in test [4], in [5], in test [6] and in test [10] was above 100 µM in each case. For the same molecule, the TGI in [7], in [8] and in [9] was above 100 µM throughout.

`Cn1nc(-c2ccccc2)c(N=[N+]=[N-])cc1=O`: the TGI in test [1], in [2], in test [3], in [4], in [5] and in test [10] was above 100 µM in each case. In addition, the TGI in [7], in test [8] and in [9] was above 100 µM each time.

As for `COC1/C(=C\C(=O)OC(C)(C)C)c2ccccc2N1C(C)=O` (stereo not given), the TGI in [2], in [3], in test [4], in test [5], in [6] and in [10] was above 100 µM in each case. The TGI in test [7] and in test [8] was above 100 µM in each case.

As for `O=C(c1cc(F)c(Cl)cc1Cl)N1N=C(c2ccccc2)CC1(O)c1ccccc1` (stereo not given), the GI50 in test [1] is 14 µM; in test [2], 11.8 µM; in test [3] it was 17.4 µM; in [4] it was 20.1 µM; in [5], 15.2 µM; in test [6], 20.7 µM. The GI50 in test [10] was 17 µM; in [8] it was 17.8 µM; in [9], 25.5 µM. For the same molecule, the TGI in test [1] was found to be 26.9 µM; in [2], 24 µM; in test [3], 41.2 µM; in test [4] it was 44.8 µM; in test [5], 36.7 µM; in test [6] it was 59.6 µM. The TGI in [10] was determined as 31.4 µM; in test [8], 57.8 µM; in test [9], 55.6 µM.

Turning to `COc1ccc(C(=O)C(c2ccc(OC)cc2)C2(O)C(=O)Nc3c(C)cc(Cl)cc32)cc1` (stereo not given), the TGI in [2], in [3], in test [4], in [5], in test [6] and in [10] was above 100 µM in each case. The TGI in [7], in test [8] and in [9] was above 100 µM throughout.

As to `COc1ccc2c(c1)nc(N)c1c3cc(OC)c(OC)cc3cn21`, the GI50 is 0.0645 µM in [1]; 0.0135 µM in [2]; 0.196 µM in [3]; 0.014 µM in test [4]; 0.249 µM in [5]; 0.238 µM in [8]. In addition, the GI50 in test [9] is 9.39 µM. In addition, the TGI in [1] is 0.987 µM; in test [2], 0.592 µM; in test [3], 0.622 µM; in test [4] it was 12.7 µM; in [5], 20.1 µM; in test [6], 22.6 µM. In addition, the figures for the TGI in test [10], in [8] and in test [9] were 0.521 µM, 17.8 µM and 37.7 µM, respectively.

As for `O=C(Nc1ccc(-n2cc(-c3ccncc3)c(-c3ccc(Cl)c(O)c3)n2)cc1)Nc1cc(C(F)(F)F)cc(C(F)(F)F)c1`, the GI50 in [1] was 1.67 µM; in [2], 1.56 µM; in test [3], 2.94 µM; in [4] it was 1.6 µM; in test [5], 2.04 µM; in [6], 1.18 µM. Besides, the values for the GI50 in [10], in [7] and in [8] were 1.2 µM, 1.76 µM and 0.404 µM, respectively. The TGI was found to be 3.41 µM in test [1]; 5.39 µM in test [2]; 8.84 µM in [3]; 3.15 µM in test [4]; 4.45 µM in test [5]; 3.88 µM in test [6]. For the same molecule, the results for the TGI in test [10], in test [7] and in test [8] were 2.81 µM, 3.56 µM and 3.98 µM, respectively.
